From patent US11110070B2 (priority 2015, dated 2021)
Entries after “also recorded” stand apart in the source; their conditions may differ. Read-outs that look alike come from different tables or passages of the source.

Key:
C57BL/6NTac mice [1] = test: Sucrose splash test (ST) in CORT model; assay type: in vivo; details: ketamine 90 mg kg^−1 or fluoxetine, before CORT
Method: (§1) Experiment 5 (Pre-ketamine and pre-fluoxetine corticosterone (CORT)): C57BL16NTac mice were injected with ketamine (10, 30, 90 mg kg^−1, i.p.) 1 week before the start of CORT, or administered fluoxetine (18 mg kg^−1 per day) in the drinking water for 3 weeks before the start of CORT. Ketamine was purchased from Merial (100 mg/ml stock solution). Fluoxetine hydrochloride (160 μg/mL, equivalent to 18 mg kg^−1 per day in the drinking water) was purchased from Anawa Trading (Zurich, Switzerland) and dissolved in 0.45% hydroxypropyl-β-cyclodextrin (β-CD) (Sigma-Aldrich, Saint-Quentin Fallavier, France) solution. Following ketamine or fluoxetine treatment, CORT was administered for 3 weeks in the drinking water. CORT (4-pregnen-11b-DIOL-3 20-DIONE 21-hemisuccinate) (35 μg/ml) from. Sigma Aldrich (Saint-Quentin Fallavier, France) was dissolved in vehicle (0.45% β-CD). Control animals received vehicle (0.45% β-CD) throughout the duration of the experiment.
This test consisted of squirting 200 μl of a 10% sucrose solution on the mouse's snout. The grooming duration was quantified using Stopwatch+ (Center for Behavioral Neuroscience, Georgia State University).

C57BL/6NTac mice [2] = test: EPM in CORT model; assay type: in vivo; details: ketamine or fluoxetine before CORT
Method: as §1
Testing was performed as previously described (A14). […] For the 12956/SvEv experiments, videos were scored using behavioral tracking software (TopScan, CleverSys, Reston, Va.). For the C57BL/6Ntac experiments, all parameters were measured using a videotracker (EPM3C. Bioseb, Vitrolles, France).

129S6/SvEvTac mice = test: Fighting behavior during SD bouts; assay type: in vivo; details: for latency of the CD-1 to attack the 129S6/SvEv mouse: vs SD-Sal
Method: Adult aggressor CD-1 male mice were single-housed in Macrolon® polycarbonate resin cages (15.25 in×7.8 in×9.5 in) (Animal Care Systems, Inc., Centennial, Colo.). Male 129S6/SvEvTac mice (9 weeks of age) were subsequently placed into the resident. CD-1 mouse's cage. Three antagonistic encounters were allowed between the CD-1 mouse and the intruder. Each of these encounters typically lasted less than 5 min. Following the encounters, mice were separated by a polished stainless steel cage divider (Animal Care Systems, Inc., Centennial, Colo., P/N C79171), which allowed for olfactory and auditory communication, but limited visual or tactile contact. The partition was removed daily for 2 weeks and 3 antagonistic encounters were allowed between the mice each day. This procedure consistently yielded a submissive phenotype in the experimental intruder mice. Control (Ctrl) mice were group housed 4 to 5 per cage in Macrolon® polycarbonate resin cages without dividers.

[3] = system: hypothalamic-pituitary-adrenal (HPA) axis; test: Corticosterone enzyme immunoassay after a brief stressor (SD model); assay type: in vivo; details: SD mice; ketamine 10, 30 or 90 mg kg^−1 before SD; vs Ctrl-Sal
Method: Mice were exposed to a minor stressor for 10 min and then returned to their home cages. Blood was collected from awake mice 70 min after the start of the stressor from the retro-orbital sinus using hematocrit tubes. Blood was then transferred to Eppendorf tubes pre-coated with 5 μl 0.5 M EDTA, placed on ice, and immediately spun down to obtain plasma for subsequent EIA. Plasma was stored at −80° C. until analysis. EIA was performed using a DetectX Corticosterone EIA Kit (#K014-H1, Arbor Assays).

C57BL/6J strain = details: cited from earlier work
[4] = 20 mg kg^−1 following the final SD session

For `CNC1(c2ccccc2Cl)CCCCC1=O` (racemic) [ketamine, (RS)-2-(2-chlorophenyl)-2-(methylamino)cyclohexanone], the “latency to groom in the ST (chronic CORT-induced depressive-like phenotype)” value (C57BL/6NTac mice [1]) was “prevented the chronic CORT-induced depressive-like phenotype; also recorded: decreased the latency to groom”, the “time in the closed arms of EPM (anxiety-like phenotype)” value (C57BL/6NTac mice [2]) was “Neither ketamine nor fluoxetine robustly protected” and the “average immobility during week 2 of SD bouts” value (129S6/SvEvTac mice; SD-K vs SD-Sal) was “significantly decreased; also recorded: significantly altered”. The “average immobility time during week 1 of SD bouts” value (129S6/SvEvTac mice; all groups) was “not significantly different”, the “latency of the CD-1 to attack the 129S6/SvEv mouse” value (129S6/SvEvTac mice; ketamine 30 mg kg^−1, at the start of SD) was “significantly later; also recorded: only differed” and the “latency of the CD-1 to attack the 129S6/SvEv mouse” value (129S6/SvEvTac mice; ketamine 10 or 90 mg kg^−1) was “comparably attacked”. For the same compound, the “levels of CORT following a brief stressor” value [3] was “did not differ from Ctrl-Sal mice”, the social avoidance (C57BL/6J strain; 20 mg kg^−1 administered before SD) was “did not attenuate social avoidance” and the anhedonia (C57BL/6J strain; [4]) was “not anhedonia”. The social avoidance (C57BL/6J strain; [4]) was “attenuated social avoidance”.
